# Data: patent US20230227466A1, “SUBSTITUTED THIENOPYRIMIDINES THAT INTERACT WITH THE RAS SUPERFAMILY FOR THE TREATMENT OF CANCERS, INFLAMMATORY DISEASES, RASOPATHIES, AND FIBROTIC DISEASE” (SHY Therapeutics, LLC, priority 2020, published 2023)
# Where two headings read alike, the source gives them in different places.
# Tests used:
# KRas G12C mutant = biological target: T1, KRas G12C mutant (Homo sapiens, UniProt P01116, G12C); assay: Ras GTP binding domain inhibition assay (labeled-GTP competition, cell-free)
# T1 construct: made in house
# Description: (§1) This is a competitive binding assay. It involves the immobilization of a protein on solid phase, interaction with a small molecule drug candidate, and then competitive binding with a labeled native GTP or GDP ligand.
# (§2) In theory, the assay is suitable for use with any GTP or GDP binding protein.
# (§3) The following method was developed as specific assay for the following proteins: KRas wild type, KRas Q61H mutant, KRas G12C mutant, KRas G12D mutant, Rac-1, and Rho-A.
# (§4) The small GTPases proteins: KRas wild type. KRas Q61H mutant, KRas G12C mutant, KRas G12D mutants, Rac-1, and Rho-A were expressed as His-tagged proteins. In addition, the Guanosine nucleotide Exchange Factor (GEF) Sos protein (residues 556-1049) was expressed as a His-tagged protein. In cells, the guanine nucleotide exchange factor Sos protein promotes activation of Ras proteins by stimulating an exchange of GDP for GTP. The inclusion of Sos to the Ras GTP binding domain inhibition assay may be considered as an alternative representation of physiological cellular conditions for evaluating the inhibitory activity of some of the tested small molecules.
# (§5) For the assay, all purified small GTPases proteins were diluted in Buffer-I or Buffer-II to a final concentration of 10-30 μg/mL. 200 μL of each diluted protein was added to a nickel-coated 96-well plate and incubated overnight at 4° C. Then the protein solution was discarded and 200 μL of Buffer-I or Buffer-II was added to each well in the presence of 1% DMSO. Compounds to be tested were added to the protein-coated wells at final concentration of 20 μM, and incubated for 3 hours at room temperature with and without 10-30 μg/mL of Sos added to the final hour of the incubation. When performing IC50 measurements a serial dilution of all tested concentrations was added. Then Cy3-GTP or Cy5-GTP was added to each well to a final concentration of 100 nM. The labeled GTP was incubated for 45 minutes at room temperature. Following GTP incubation, wells were washed 3× in Buffer-I or Buffer-II and 200 μL of Buffer-I or Buffer-II was added to each well. Following washes, the amount of bound labeled-GTP was measured using a SpectraMax M3 (Molecular Devices).
# KRas Q61H mutant = biological target: T2, KRas Q61H mutant (Homo sapiens, UniProt P01116, Q61H); assay: as above
# T2 construct: made in house
# Description: as §1, §2, §3, §4, §5
# KRas G12D mutant = biological target: T3, KRas G12D mutant (Homo sapiens, UniProt P01116, G12D); assay: as above
# T3 construct: made in house
# Description: as §1, §2, §3, §4, §5
# Rac-1 [1] = biological target: T4, Rac-1 (Homo sapiens, UniProt P63000); assay: as above; parameters: made in house
# Description: as §1, §2, §3, §4, §5
# Rho-A [2] = biological target: T5, Rho-A (Homo sapiens, UniProt P61586); assay: as above; parameters: made in house
# Description: as §1, §2, §3, §4, §5
# KRas wild type [3] = biological target: T6, KRas wild type (Homo sapiens, UniProt P01116); assay: as above; parameters: made in house
# Description: as §1, §2, §3, §4, §5
# [4] = system: MIA-PaCa-2 pancreatic cancer cell line (KRAS G12C); assay: Cell proliferation assay (CellTiter 96 Aqueous One); format: cell-based; conditions: Homo sapiens
# Procedure: Cell lines: Human tumor-derived cell lines were purchased from American Type Culture Collection. Human tumor-derived pancreatic cancer cell line MIA-PACA2 (having a KRAS G12C mutation) and Panc-1 (having a KRAS G12D mutation), and Human non-small cell lung cancer (NSCLC) cell line A549 (having a KRAS G12S mutation) were grown in complete DMEM-High Glucose. Human colon cancer cell line SW-620 (having a KRAS G12V mutation) was grown in RPMI. All cell lines were supplemented with penicillin (100 U/mL), streptomycin (100 μg/mL), and 10% heat-inactivated FBS at 37° C. in a humidified incubator with 5% CO2.
# Method: Cells were plated at 2000 to 5000 cells/well density in 96-wells plate and cultured overnight. Small molecules to be tested were added to the cells in the final concentration of 10 μM in the presence of 0.3% DMSO and 10% FBS, and incubated for 2-4 days at 37° C. in a humidified incubator with 5% CO2. For IC50 value determination, serial dilutions of compounds were added to cells under the same conditions.
# Assay: At the end of the incubation period, cell viability was measured using the CellTiter 96® Aqueous One Solution Cell Proliferation Assay according to manufacturer specifications (Promega, Madison, Wis.). The percentage of small molecules inhibition of cellular proliferation was calculated from raw data.
# [5] = biological target: GTP binding domain of Ras (Homo sapiens, UniProt P01112); conditions: literature (Feuerstein 1987; John 1990); cited from earlier work
# Rho-A [6] = biological target: T5, Rho-A; assay: Scintillation Proximity Assay (SPA) GTP affinity; conditions: read-out: SPA GTP affinity for binding domain
# K-Ras (Q61H) [7] = biological target: T7, K-Ras (Q61H) (Homo sapiens, UniProt P01116, Q61H); assay: MicroScale Thermophoresis (MST) GTP affinity; conditions: read-out: MST GTP affinity for binding domain
# Description: (§6) As disclosed in International Application No. PCT/US2018/038613 and U.S. patent application Ser. No. 16/013,872, the affinity of GTP for the GTP binding domain of K-Ras utilizing a Scintillation Proximity Assay (SPA) and MicroScale Thermophoresis (MST) has been measured. These methods were not available when Wittinghofer and colleagues undertook their studies.
# (§7) This therefore led to the novel, unanticipated conclusion that compounds such as small molecules could be discovered that would bind to a Ras GTP binding domain and compete with the binding of GTP to Ras.
# (§8) See Khawaja et al., “Scintillation proximity assay in lead discovery”, Expert Opin. Drug Discov., 2008 November; 3(11):1267-80 regarding SPA procedures. See the following references regarding MST technology: Wienken et al., Nature Communications (2010), Protein binding assays in biological liquids using MicroScale Thermophoresis; Jerabek-Willemsen et al., ASSAY and Drug Development Technologies (2011), Molecular interaction studies using MicroScale Thermophoresis; Lin et al., Cell (2012), Inhibition of basal FGF receptor signaling by dimeric Grb2; Seidel et al., Angewandte Chemie (2012), Label-Free MicroScale Thermophoresis discriminates sites and affinity of protein-ligand binding; Seidel et al., Methods (2012), MicroScale Thermophoresis quantifies biomolecular interactions under previously challenging conditions; Parker & Newstead, Nature (2014), Molecular basis of nitrate uptake by the plant nitrate transporter NRT1.1; and Jerabek-Willemsen et al., Journal of Molecular Structure (2014), MicroScale Thermophoresis: Interaction analysis and beyond.
# K-Ras (G12C) [8] = biological target: T8, K-Ras (G12C) (Homo sapiens, UniProt P01116, G12C); assay: MicroScale Thermophoresis (MST) GTP affinity; conditions: read-out: MST GTP affinity for binding domain
# Description: as §6, §7, §8
# K-Ras (G12D) [9] = biological target: T9, K-Ras (G12D) (Homo sapiens, UniProt P01116, G12D); assay: MicroScale Thermophoresis (MST) GTP affinity; conditions: read-out: MST GTP affinity for binding domain
# Description: as §6, §7, §8
# Rac-1 [10] = biological target: T4, Rac-1; assay: MicroScale Thermophoresis (MST) GTP affinity; conditions: read-out: MST GTP affinity for binding domain
# Description: as §6, §7, §8
# Rho-A [11] = biological target: T5, Rho-A; assay: MicroScale Thermophoresis (MST) GTP affinity; conditions: read-out: MST GTP affinity for binding domain
# Description: as §6, §7, §8
# KRas wild type [12] = biological target: T6, KRas wild type; assay: MicroScale Thermophoresis (MST) GTP affinity; conditions: read-out: MST GTP affinity for binding domain
# Description: as §6, §7, §8
# K-Ras (Q61H) [13] = biological target: T7, K-Ras (Q61H); assay: Scintillation Proximity Assay (SPA) GTP affinity; conditions: read-out: SPA GTP affinity for binding domain
# Description: as §6, §7, §8
# K-Ras (G12C) [14] = biological target: T8, K-Ras (G12C); assay: Scintillation Proximity Assay (SPA) GTP affinity; conditions: read-out: SPA GTP affinity for binding domain
# Description: as §6, §7, §8
# K-Ras (G12D) [15] = biological target: T9, K-Ras (G12D); assay: Scintillation Proximity Assay (SPA) GTP affinity; conditions: read-out: SPA GTP affinity for binding domain
# Description: as §6, §7, §8
# KRas wild type [16] = biological target: T6, KRas wild type; assay: Scintillation Proximity Assay (SPA) GTP affinity; conditions: read-out: SPA GTP affinity for binding domain
# Description: as §6, §7, §8
# Rac-1 and Rho-A = assay: SPA and MST studies, GTP affinity for Rho subfamily members; conditions: read-out: affinity of GTP for the binding domain of Rac-1 and Rho-A members of the Rho subfamily
# Description: as §7, §8
# [17] = biological target: K-Ras GTP binding domain (wild type and mutant K-Ras); assay: SPA and MST studies, GTP affinity across K-Ras forms
# Description: as §7, §8
# Rac-1 [18] = biological target: T4, Rac-1; assay: Scintillation Proximity Assay (SPA) GTP affinity; conditions: read-out: SPA GTP affinity for binding domain
# [19] = with SOS, read-out: KRas G12C mutant + SOS: % inh.
# [20] = without SOS, read-out: KRas G12C mutant: % inh.
# [21] = with SOS, read-out: KRas Q61H mutant + SOS: % inh.
# [22] = without SOS, read-out: KRas Q61H mutant: % inh.
# [23] = with SOS, read-out: KRas G12D mutant + SOS: % inh.
# [24] = without SOS, read-out: KRas G12D mutant: % inh.
# [25] = without SOS, read-out: Rac-1: % inh.
# [26] = without SOS, read-out: Rho-A: % inh.
# [27] = with SOS, read-out: KRas wild type + SOS: % inh.
# [28] = without SOS, read-out: KRas wild type: % inh.
inhibition at 20 µM (KRas G12C mutant; [19]),inhibition at 20 µM (KRas G12C mutant; [20]),inhibition at 20 µM (KRas Q61H mutant; [21]),inhibition at 20 µM (KRas Q61H mutant; [22]),inhibition at 20 µM (KRas G12D mutant; [23]),inhibition at 20 µM (KRas G12D mutant; [24]),inhibition at 20 µM (Rac-1 [1]; [25]),inhibition at 20 µM (Rho-A [2]; [26]),inhibition at 20 µM (KRas wild type [3]; [27]),inhibition at 20 µM (KRas wild type [3]; [28]),Compound,affinity for the GTP binding domain of Ras [5],other results
76 to 100%,51 to 75%,76 to 100%,51 to 75%,76 to 100%,51 to 75%,76 to 100%,76 to 100%,76 to 100%,76 to 100%,"Oc1nc(-c2ccccn2)nc2c(-c3ncccc3F)csc12 [Compound 27, 7-(3-Fluoropyridin-2-yl)-2-(pyridin-2-yl)thieno[3,2-d]pyrimidin-4-ol]",,"IC50 (KRas Q61H mutant; with SOS): 1000 to 4990 nM; inhibition at 20 µM (Rac-1 [1]; with SOS, read-out: Rac-1 + SOS: % inh.): 76 to 100%; inhibition at 20 µM (Rho-A [2]; with SOS, read-out: Rho-A + SOS: % inh.): 76 to 100%; IC50 ([4]; MIA PaCa-2, MIA PaCa-2): 1 to 4.99 µM; inhibition at 10 µM ([4]; 10 μM, MIA PaCa-2, read-out: % inh cell proliferation (10 μM) in MIA PaCa-2): 76 to 100%"
1 to 25%,26 to 50%,1 to 25%,1 to 25%,1 to 25%,26 to 50%,1 to 25%,51 to 75%,0%,26 to 50%,"Oc1nc(-c2ccc3[nH]ncc3n2)nc2c(-c3ccccn3)csc12 [Compound 93, 2-(1H-Pyrazolo[4,3-b]pyridin-5-yl)-7-(pyridin-2-yl)thieno[3,2-d]pyrimidin-4-ol]",,
,,,,,,,,,,Nc1nc2c(ncn2[C@@H]2O[C@H](COP(=O)(O)OP(=O)(O)O)[C@@H](O)[C@H]2O)c(=O)[nH]1 [GDP],single to double digit picomolar,
,,,,,,,,,,Nc1nc2c(ncn2[C@@H]2O[C@H](COP(=O)(O)OP(=O)(O)OP(=O)(O)O)[C@@H](O)[C@H]2O)c(=O)[nH]1 [GTP],single to double digit picomolar,Kd (Rho-A [6]): 129 ± 12 nM; Kd (K-Ras (Q61H) [7]): 157 ± 21 nM; Kd (K-Ras (G12C) [8]): 207 ± 46 nM; Kd (K-Ras (G12D) [9]): 244 ± 12 nM; Kd (Rac-1 [10]): 166 ± 10 nM; Kd (Rho-A [11]): 130 ± 5 nM; Kd (KRas wild type [12]): 463 ± 2 nM; Kd (K-Ras (Q61H) [13]): 118 ± 11 nM; Kd (K-Ras (G12C) [14]): 258 ± 18 nM; Kd (K-Ras (G12D) [15]): 270 ± 15 nM; Kd (KRas wild type [16]): 243 ± 15 nM; Kd (Rac-1 and Rho-A): 120 to 170 nM; Kd [17]: 100 to 465 nM; Kd (Rac-1 [18]): 151 ± 14 nM
